The source made the active and inactive calls. The calls are words filed in the database; no cut-off is given here.
Assays:
Assay type in all cases: functional
[1] = tested on: Aspergillus niger; experiment: Antifungal activity against Aspergillus niger at 50 ug after 48 hrs by agar well diffusion method; conditions: for zone of inhibition at 50 µg/disc: read-out: DIZ
[2] = tested on: Penicillium chrysogenum; experiment: Antifungal activity against Penicillium chrysogenum at 50 ug after 48 hrs by agar well diffusion method; conditions: for zone of inhibition at 50 µg/disc: read-out: DIZ
[3] = tested on: Penicillium chrysogenum; experiment: Antifungal activity against Penicillium chrysogenum at 100 ug after 48 hrs by agar well diffusion method; conditions: for zone of inhibition at 100 µg/disc: read-out: DIZ
[4] = tested on: Bacillus subtilis; experiment: Antibacterial activity against Bacillus subtilis at 100 ug after 24 hrs by agar well diffusion method; conditions: for zone of inhibition at 100 µg/disc: read-out: DIZ
[5] = tested on: Bacillus subtilis; experiment: Antibacterial activity against Bacillus subtilis at 50 ug after 24 hrs by agar well diffusion method; conditions: for zone of inhibition at 50 µg/disc: read-out: DIZ
[6] = tested on: Pseudomonas aeruginosa; experiment: Antibacterial activity against Pseudomonas aeruginosa at 100 ug after 24 hrs by agar well diffusion method; conditions: for zone of inhibition at 100 µg/disc: read-out: DIZ
[7] = tested on: Staphylococcus aureus; experiment: Antibacterial activity against Staphylococcus aureus assessed at 50 ug after 24 hrs by agar well diffusion method; conditions: for zone of inhibition at 50 µg/disc: read-out: DIZ
[8] = tested on: Staphylococcus aureus; experiment: Antibacterial activity against Staphylococcus aureus at 100 ug after 24 hrs by agar well diffusion method; conditions: for zone of inhibition at 100 µg/disc: read-out: DIZ
[9] = tested on: Klebsiella pneumoniae; experiment: Antibacterial activity against Klebsiella pneumoniae at 100 ug after 24 hrs by agar well diffusion method; conditions: for zone of inhibition at 100 µg/disc: read-out: DIZ
[10] = tested on: Aspergillus niger; experiment: Antifungal activity against Aspergillus niger at 100 ug after 48 hrs by agar well diffusion method; conditions: for zone of inhibition at 100 µg/disc: read-out: DIZ
[11] = tested on: Klebsiella pneumoniae; experiment: Antibacterial activity against Klebsiella pneumoniae at 50 ug after 24 hrs by agar well diffusion method; conditions: for zone of inhibition at 50 µg/disc: read-out: DIZ
[12] = tested on: Pseudomonas aeruginosa; experiment: Antibacterial activity against Pseudomonas aeruginosa at 50 ug after 24 hrs by agar well diffusion method; conditions: for zone of inhibition at 50 µg/disc: read-out: DIZ

SMILES	zone of inhibition at 50 µg/disc [1]	zone of inhibition at 50 µg/disc [2]	zone of inhibition at 100 µg/disc [3]	zone of inhibition at 100 µg/disc [4]	zone of inhibition at 50 µg/disc [5]	zone of inhibition at 100 µg/disc [6]	zone of inhibition at 50 µg/disc [7]	zone of inhibition at 100 µg/disc [8]	zone of inhibition at 100 µg/disc [9]	zone of inhibition at 100 µg/disc [10]	zone of inhibition at 50 µg/disc [11]	zone of inhibition at 50 µg/disc [12]	diameter of the inhibition zone (DIZ) [1]	diameter of the inhibition zone (DIZ) [2]	diameter of the inhibition zone (DIZ) [3]	diameter of the inhibition zone (DIZ) [6]	diameter of the inhibition zone (DIZ) [9]	diameter of the inhibition zone (DIZ) [10]	diameter of the inhibition zone (DIZ) [11]	diameter of the inhibition zone (DIZ) [12]	also measured
O=C(Nc1nc(-c2ccc(Cl)cc2)co1)c1c[nH]cc1-c1ccccc1	24 mm	25 mm	28 mm	21 mm	17 mm	20 mm	18 mm	20 mm	25 mm	26 mm	23 mm	18 mm	–	–	–	–	–	–	–	–	–
Cc1ccc(-c2coc(NC(=O)c3n[nH]cc3-c3ccccc3)n2)cc1	–	–	–	–	–	–	–	–	–	–	–	–	inactive	inactive	inactive	inactive	inactive	inactive	inactive	inactive	diameter of the inhibition zone (DIZ) [4]: inactive; diameter of the inhibition zone (DIZ) [5]: inactive; diameter of the inhibition zone (DIZ) [7]: inactive; diameter of the inhibition zone (DIZ) [8]: inactive
Cc1ccc(-c2coc(NC(=O)C3=NNCC3c3ccccc3)n2)cc1 (stereo unspecified)	–	–	–	–	–	–	–	–	–	–	–	–	inactive	inactive	inactive	inactive	inactive	inactive	inactive	inactive	diameter of the inhibition zone (DIZ) [4]: inactive; diameter of the inhibition zone (DIZ) [5]: inactive; diameter of the inhibition zone (DIZ) [7]: inactive; diameter of the inhibition zone (DIZ) [8]: inactive
Cc1ccc(-c2c[nH]c(NC(=O)/C=C/c3ccccc3)n2)cc1	18 mm	20 mm	23 mm	23 mm	21 mm	16 mm	18 mm	20 mm	25 mm	21 mm	23 mm	14 mm	–	–	–	–	–	–	–	–	–
O=C(/C=C/c1ccccc1)Nc1nc(-c2ccccc2)c[nH]1	19 mm	21 mm	24 mm	24 mm	22 mm	17 mm	19 mm	21 mm	26 mm	22 mm	24 mm	16 mm	–	–	–	–	–	–	–	–	–
O=C(Nc1nc(-c2ccc(Cl)cc2)cs1)c1n[nH]cc1-c1ccccc1	30 mm	31 mm	34 mm	31 mm	28 mm	26 mm	27 mm	29 mm	33 mm	32 mm	30 mm	24 mm	–	–	–	–	–	–	–	–	–
O=C(/C=C/c1ccccc1)Nc1nc(-c2ccccc2)cs1	21 mm	23 mm	26 mm	26 mm	24 mm	18 mm	21 mm	23 mm	28 mm	24 mm	26 mm	17 mm	–	–	–	–	–	–	–	–	–
O=C(Nc1nc(-c2ccccc2)co1)c1c[nH]cc1-c1ccccc1	–	–	–	15 mm	13 mm	–	12 mm	14 mm	–	–	–	–	inactive	inactive	inactive	inactive	inactive	inactive	inactive	inactive	–
O=C(Nc1nc(-c2ccccc2)co1)c1n[nH]cc1-c1ccccc1	10 mm	12 mm	15 mm	15 mm	13 mm	12 mm	10 mm	12 mm	17 mm	13 mm	15 mm	10 mm	–	–	–	–	–	–	–	–	–
O=C(/C=C/c1ccccc1)Nc1nc(-c2ccccc2)co1	–	–	–	16 mm	15 mm	–	12 mm	15 mm	–	–	–	–	inactive	inactive	inactive	inactive	inactive	inactive	inactive	inactive	–
O=C(Nc1nc(-c2ccccc2)co1)C1=NNCC1c1ccccc1 (stereo unspecified)	–	–	–	–	–	–	–	–	–	–	–	–	inactive	inactive	inactive	inactive	inactive	inactive	inactive	inactive	diameter of the inhibition zone (DIZ) [4]: inactive; diameter of the inhibition zone (DIZ) [5]: inactive; diameter of the inhibition zone (DIZ) [7]: inactive; diameter of the inhibition zone (DIZ) [8]: inactive
Cc1ccc(-c2csc(NC(=O)C3=NNCC3c3ccccc3)n2)cc1 (stereo unspecified)	13 mm	15 mm	18 mm	18 mm	16 mm	13 mm	13 mm	15 mm	20 mm	16 mm	18 mm	12 mm	–	–	–	–	–	–	–	–	–
Cc1ccc(-c2c[nH]c(NC(=O)c3n[nH]cc3-c3ccccc3)n2)cc1	8 mm	8 mm	11 mm	12 mm	9 mm	10 mm	8 mm	9 mm	13 mm	9 mm	11 mm	9 mm	–	–	–	–	–	–	–	–	–
Cc1ccc(-c2coc(NC(=O)/C=C/c3ccccc3)n2)cc1	–	–	–	–	–	–	–	–	–	–	–	–	inactive	inactive	inactive	inactive	inactive	inactive	inactive	inactive	diameter of the inhibition zone (DIZ) [4]: inactive; diameter of the inhibition zone (DIZ) [5]: inactive; diameter of the inhibition zone (DIZ) [7]: inactive; diameter of the inhibition zone (DIZ) [8]: inactive
O=C(Nc1nc(-c2ccc(Cl)cc2)co1)C1=NNCC1c1ccccc1 (stereo unspecified)	23 mm	24 mm	27 mm	20 mm	17 mm	19 mm	17 mm	18 mm	24 mm	25 mm	22 mm	17 mm	–	–	–	–	–	–	–	–	–
Cc1ccc(-c2c[nH]c(NC(=O)C3=NNCC3c3ccccc3)n2)cc1 (stereo unspecified)	11 mm	13 mm	16 mm	16 mm	14 mm	13 mm	11 mm	13 mm	18 mm	14 mm	16 mm	11 mm	–	–	–	–	–	–	–	–	–
O=C(Nc1nc(-c2ccc(Cl)cc2)cs1)c1c[nH]cc1-c1ccccc1	29 mm	30 mm	33 mm	29 mm	27 mm	25 mm	26 mm	27 mm	30 mm	31 mm	29 mm	23 mm	–	–	–	–	–	–	–	–	–
O=C(Nc1nc(-c2ccccc2)c[nH]1)c1c[nH]cc1-c1ccccc1	16 mm	17 mm	20 mm	20 mm	18 mm	15 mm	15 mm	17 mm	22 mm	18 mm	20 mm	14 mm	–	–	–	–	–	–	–	–	–

— ChEMBL document CHEMBL2146447, “Synthesis and antimicrobial activity of amido linked pyrrolyl and pyrazolyl-oxazoles, thiazoles and imidazoles” (2011)
